Measurements reported in US20130210846A1, “USE OF NOVEL PAN-CDK INHIBITORS FOR TREATING TUMORS” (BAYER INTELLECTUAL PROPERTY GMBH, priority 2010, published 2013).
pIC50: −log10 of the molar value.

Tests used:
DU145 = assay: Proliferation assay DU145; type: cell-based, human; details: DU145, prostate carcinoma; 4 days, crystal violet
Protocol: (§1) Cultivated human tumor cells (originally obtained from ATCC, HeLa-MaTu and HeLa-MaTu-ADR, originally obtained from Epo GmbH, Berlin, Germany) were plated at a density of 1000 to 5000 cells/measuring point, depending on the growth rate of the cell line, in a 96-well multititer plate in 200 μl of growth medium (DMEM/HAMS F12, 2 mM L-glutamine, 10% fetal calf serum). After 24 hours the cells of one plate (zero-point plate) were stained with crystal violet (see below), whereas the medium of the other plates was replaced with fresh culture medium (200 μl), to which the test substances had been added at various concentrations (0 μM, and in the range 0.01-30 μM; the final concentration of the solvent dimethyl sulfoxide was 0.5%). The cells were incubated for 4 days in the presence of the test substances. Cellular proliferation was determined by staining the cells with crystal violet: the cells were fixed by adding 20 μl/measuring point of an 11% glutaraldehyde solution for 15 min at room temperature. After washing the fixed cells with water three times, the plates were dried at room temperature. The cells were stained by adding 100 μl/measuring point of a 0.1% crystal violet solution (pH adjusted to pH3 by adding acetic acid). After washing the stained cells with water three times, the plates were dried at room temperature. The dye was dissolved by adding 100 μl/measuring point of a 10% acetic acid solution. The extinction was determined photometrically at a wavelength of 595 nm. The percentage change in cell growth was calculated by standardization of the measured values to the extinction values of the zero-point plate (=0%) and the extinction of the untreated (0 μM) cells (=100%). The measured data were standardized to 0% inhibition (cell proliferation without inhibitor) and 100% inhibition (zero-point plate). The IC50 values were determined by means of a 4-parameter fit using the company's own software.
(§2) The substances were examined in the following cell lines which, in an exemplary manner, represent the stated indications: […]

HeLa-MaTu-ADR = assay: Proliferation assay HeLa-MaTu-ADR; type: cell-based, human; details: cervix carcinoma, 4 days, crystal violet
Protocol: as §1, §2

NCI-H460 = assay: Proliferation assay NCI-H460; type: cell-based, human; details: NCI-H460, non-small-cell bronchial carcinoma; 4 days, crystal violet
Protocol: as §1, §2

HeLa-MaTu = assay: Proliferation assay HeLa-MaTu; type: cell-based, human; details: cervix carcinoma, 4 days, crystal violet
Protocol: as §1, §2

Caco-2 = assay: Proliferation assay Caco-2; type: cell-based, human; details: Caco-2, colon/rectum carcinoma; 4 days, crystal violet
Protocol: as §1, §2

MCF7 = assay: Proliferation assay MCF7; type: cell-based, human; details: MCF7, estrogen receptor-positive mamma carcinoma; 4 days, crystal violet
Protocol: as §1, §2

[1] = biological target: T1, VEGF receptor tyrosine kinase-2 (VEGF-R2) (Homo sapiens, UniProt P35968); assay: VEGF receptor-2 kinase assay (Assay 3); type: biochemical; details: 8 μM ATP, poly-(Glu4Tyr), 10 min 22° C.; read-out: VEGF-R2 (Assay 3) Concentration for half-maximal inhibition of the enzyme activity, IC50
T1 construct: GST; made in house; host or cells: baculovirus-infected insect cells (Sf9)
Protocol: Recombinant VEGF receptor tyrosine kinase-2 was purified as GST fusion protein from baculovirus-infected insect cells (Sf9). Poly-(Glu4Tyr), used as kinase substrate, was purchased from Sigma.
VEGF receptor tyrosine kinase (90 ng/measuring point) was incubated for 10 min at 22° C. in the presence of various concentrations of test substances (0 μM, and within the range 0.001-30 μM) in 30 μl assay buffer [40 mM Tris/HCl pH5.5, 10 mM MgCl2, 1 mM MnCl2, 3 μM Na ortho-vanadate, 1.0 mM dithiothreitol, 8 μM adenosine triphosphate (ATP), 0.96 μg/measuring point poly-(Glu4Tyr), 0.2 μCi/measuring point ^33P-gamma ATP, 1.4% dimethyl sulfoxide]. The reaction was stopped by adding EDTA solution (250 mM, pH 8.0, 15 μl/measuring point).
(§3) From each reaction mixture, 15 μl was applied to P30 filter strips (from Wallac), and unincorporated ^33P-ATP was removed by washing the filter strips three times, for 10 min each time, in 0.5% phosphoric acid. After drying the filter strips for 1 hour at 70° C., the filter strips were covered with scintillator strips (MeltiLex™ A, from Wallac) and stoved for 1 hour at 90° C. The amount of incorporated ^33P (substrate phosphorylation) was determined by scintillation measurement in a gamma-radiation measuring instrument (Wallac). The measured data were standardized to 0% inhibition (enzyme reaction without inhibitor) and 100% inhibition (all assay components except enzyme). The IC50 values were determined by means of a 4-parameter fit using the company's own software.

CDK2/CycE = biological target: T2, CDK2/CycE (Homo sapiens, UniProt P24941); assay: CDK2/CycE kinase assay (Assay 2); type: biochemical; details: 0.5 μM ATP, histon IIIS, 10 min 22° C.; read-out: CDK2/CycE (Assay 2) Concentration for half-maximal inhibition of the enzyme activity, IC50
T2 construct: purchased ProQinase GmbH, Freiburg, Germany; host or cells: baculovirus-infected insect cells (Sf9)
Protocol: Recombinant CDK2 and CycE-GST fusion proteins, purified from baculovirus-infected insect cells (Sf9), were purchased from ProQinase GmbH, Freiburg, Germany. Histon HIS, used as kinase substrate, was purchased from Sigma.
The reaction was stopped by adding EDTA solution (250 mM, pH 8.0, 15 μl/measuring point).
as §3, with “The measured data were standardized to 0% inhibition (enzyme reaction without inhibitor) and 100% inhibition (all assay components except enzyme).” left out

CDK1/CycB = biological target: T3, CDK1/CycB (Homo sapiens, UniProt P06493); assay: CDK1/CycB kinase assay (Assay 1); type: biochemical; details: 0.5 μM ATP, histon IIIS, 10 min 22° C.; read-out: CDK1/CycB (Assay 1) Concentration for half-maximal inhibition of the enzyme activity, IC50
T3 construct: purchased ProQinase GmbH, Freiburg, Germany; host or cells: baculovirus-infected insect cells (Sf9)
Protocol: Recombinant CDK1 and CycB-GST fusion proteins, purified from baculovirus-infected insect cells (Sf9), were purchased from ProQinase GmbH, Freiburg, Germany. The histon HIS used as kinase substrate is commercially available from Sigma.
CDK1/CycB (200 ng/measuring point) was incubated for 10 min at 22° C. in the presence of various concentrations of test substances (0 μM, and within the range 0.01-100 μM) in assay buffer [50 mM Tris/HCl pH8.0, 10 mM MgCl2, 0.1 mM Na ortho-vanadate, 1.0 mM dithiothreitol, 0.5 μM adenosine triphosphate (ATP), 10 μg/measuring point histon IIIS, 0.2 μCi/measuring point ^33P-gamma ATP, 0.05% NP40, 1.25% dimethyl sulfoxide]. The reaction was stopped by adding EDTA solution (250 mM, pH 8.0, 15 μl/measuring point).
as §3, with “μl were” for “μl was”

T3 sequence (P06493 whole entry): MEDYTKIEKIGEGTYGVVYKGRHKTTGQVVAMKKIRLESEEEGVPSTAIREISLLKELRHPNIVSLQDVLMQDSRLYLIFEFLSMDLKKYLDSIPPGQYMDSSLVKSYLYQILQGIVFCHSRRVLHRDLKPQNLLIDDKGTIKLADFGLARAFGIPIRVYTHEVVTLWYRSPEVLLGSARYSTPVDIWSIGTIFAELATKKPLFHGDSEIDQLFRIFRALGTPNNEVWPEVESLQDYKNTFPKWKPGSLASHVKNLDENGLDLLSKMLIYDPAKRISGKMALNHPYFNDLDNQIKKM
T3 sequence (P14635 whole entry partner): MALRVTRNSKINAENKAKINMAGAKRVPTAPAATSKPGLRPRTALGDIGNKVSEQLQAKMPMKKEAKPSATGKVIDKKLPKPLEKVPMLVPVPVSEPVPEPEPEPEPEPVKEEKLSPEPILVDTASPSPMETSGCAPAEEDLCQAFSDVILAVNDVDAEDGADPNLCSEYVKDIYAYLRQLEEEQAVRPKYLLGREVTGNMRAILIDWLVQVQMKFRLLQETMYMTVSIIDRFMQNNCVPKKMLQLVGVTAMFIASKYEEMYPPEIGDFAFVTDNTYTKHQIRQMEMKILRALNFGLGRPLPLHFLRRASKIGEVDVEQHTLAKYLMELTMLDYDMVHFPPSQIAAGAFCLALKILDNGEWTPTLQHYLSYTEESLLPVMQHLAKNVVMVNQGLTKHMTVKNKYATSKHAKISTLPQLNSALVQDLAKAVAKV
T1 sequence (P35968 20-1356, species assumed): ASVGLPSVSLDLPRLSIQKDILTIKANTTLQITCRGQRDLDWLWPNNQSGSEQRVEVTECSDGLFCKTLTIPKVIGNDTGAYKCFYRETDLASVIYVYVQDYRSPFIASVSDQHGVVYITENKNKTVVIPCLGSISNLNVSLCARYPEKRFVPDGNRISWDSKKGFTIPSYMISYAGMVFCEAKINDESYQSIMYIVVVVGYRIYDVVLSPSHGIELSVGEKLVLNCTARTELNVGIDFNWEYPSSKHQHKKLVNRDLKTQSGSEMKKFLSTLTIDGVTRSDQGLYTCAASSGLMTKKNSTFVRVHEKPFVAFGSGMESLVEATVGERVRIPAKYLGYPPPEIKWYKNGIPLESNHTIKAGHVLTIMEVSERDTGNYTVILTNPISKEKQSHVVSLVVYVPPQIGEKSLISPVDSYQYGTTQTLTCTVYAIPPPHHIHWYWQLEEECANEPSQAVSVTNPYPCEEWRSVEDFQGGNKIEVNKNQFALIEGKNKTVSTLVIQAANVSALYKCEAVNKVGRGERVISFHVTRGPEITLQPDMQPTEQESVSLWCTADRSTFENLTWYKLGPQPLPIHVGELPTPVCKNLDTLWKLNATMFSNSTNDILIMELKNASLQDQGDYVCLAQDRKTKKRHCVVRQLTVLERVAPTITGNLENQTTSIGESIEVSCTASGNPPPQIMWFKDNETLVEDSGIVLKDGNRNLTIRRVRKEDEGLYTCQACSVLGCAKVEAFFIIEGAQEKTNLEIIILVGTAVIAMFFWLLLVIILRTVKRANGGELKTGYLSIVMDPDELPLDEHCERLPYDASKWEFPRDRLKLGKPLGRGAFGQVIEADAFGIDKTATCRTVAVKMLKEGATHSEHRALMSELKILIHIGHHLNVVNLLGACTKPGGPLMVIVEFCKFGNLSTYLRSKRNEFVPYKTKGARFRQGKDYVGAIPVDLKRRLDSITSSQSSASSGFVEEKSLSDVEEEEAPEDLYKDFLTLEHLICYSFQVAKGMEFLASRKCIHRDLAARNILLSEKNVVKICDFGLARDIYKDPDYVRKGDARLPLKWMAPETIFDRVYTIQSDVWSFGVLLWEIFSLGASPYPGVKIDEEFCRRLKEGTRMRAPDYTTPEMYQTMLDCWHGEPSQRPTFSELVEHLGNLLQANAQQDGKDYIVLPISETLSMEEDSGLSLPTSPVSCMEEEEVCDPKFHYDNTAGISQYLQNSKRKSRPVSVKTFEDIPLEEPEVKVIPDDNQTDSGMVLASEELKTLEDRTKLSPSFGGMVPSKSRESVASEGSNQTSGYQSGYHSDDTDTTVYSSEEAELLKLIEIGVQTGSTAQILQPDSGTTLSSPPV

`C[C@@H](O)[C@@H](C)Nc1nc(Nc2ccc(S(C)(=N)=O)cc2)ncc1C(F)(F)F` (mixture of isomers) [Example 8-SI-1, (RS)—S-(4-{[4-{[(1R,2R)-2-Hydroxy-1-methylpropyl]amino}-5-(trifluoromethyl)pyrimidin-2-yl]-amino}phenyl)-S-methylsulfoximide] gave a pIC50 (DU145) of 7.19.

`C[C@@H](O)[C@@H](C)Nc1nc(Nc2ccc(S(C)(=N)=O)cc2)ncc1C(F)(F)F` (mixture of isomers) [Example 8-SI-2, (RS)—S-(4-{[4-{[(1R,2R)-2-Hydroxy-1-methylpropyl]amino}-5-(trifluoromethyl)pyrimidin-2-yl]-amino}phenyl)-S-methylsulfoximide] was tested, and the pIC50 (HeLa-MaTu-ADR) was 7.62, the pIC50 (DU145) was 7.52 and the pIC50 (NCI-H460) was 7.55. For the same compound, the pIC50 (HeLa-MaTu) was 8.00, the pIC50 (Caco-2) was 7.39 and the pIC50 (MCF7) was 7.64.

`C[C@@H](Nc1nc(Nc2ccc(S(C)(=N)=O)cc2)ncc1C(F)(F)F)C(C)(C)O` (mixture of isomers) [Example 9-SI-2, (RS)—S-(4-{[4-{[(1R)-2-Hydroxy-1,2-dimethylpropyl]amino}-5-(trifluoromethyl)pyrimidin-2-yl]amino}phenyl)-S-methylsulfoximide] showed a pIC50 (HeLa-MaTu-ADR) of 6.94, a pIC50 (DU145) of 6.73 and a pIC50 (NCI-H460) of 6.95. It also gave a pIC50 (HeLa-MaTu) of 7.68, a pIC50 (Caco-2) of 6.70 and a pIC50 (MCF7) of 6.57.

For `C[C@@H](O)[C@@H](C)Oc1nc(Nc2ccc(S(C)(=N)=O)cc2)ncc1C(F)(F)F` (mixture of isomers) [Example 2-SI-1, (RS)—S-(4-{[4-{[(1R,2R)-2-Hydroxy-1-methylpropyl]oxy}-5-(trifluoromethyl)pyrimidin-2-yl]-amino}phenyl)-S-methylsulfoximide], the pIC50 (HeLa-MaTu-ADR) was 7.49, the pIC50 (DU145) was 7.55 and the pIC50 (NCI-H460) was 7.17. It also gave a pIC50 (Caco-2) of 7.10 and a pIC50 (MCF7) of 7.41.

`C[C@@H](Nc1nc(Nc2ccc(S(C)(=N)=O)cc2)ncc1C(F)(F)F)C(C)(C)O` (single isomer, unassigned) [Example 9-SI-2] showed a pIC50 [1] of 6.81, a pIC50 (CDK2/CycE) of 8.52 and a pIC50 (CDK1/CycB) of 7.77.

`CCS(=N)(=O)c1ccc(Nc2ncc(C(F)(F)F)c(N[C@H](C)C(C)(C)O)n2)cc1` (single isomer, unassigned) [Example 7-SI-1] was tested, and the pIC50 [1] was 6.84, the pIC50 (CDK2/CycE) was 8.40 and the pIC50 (CDK1/CycB) was 7.62.

`C[C@@H](O)[C@@H](C)Oc1nc(Nc2ccc(S(=N)(=O)C3CC3)cc2)ncc1C(F)(F)F` (mixture of isomers) [Example 1-SI-1, (RS)—S-Cyclopropyl-S-(4-{[4-{[(1R,2R)-2-hydroxy-1-methylpropyl]oxy}-5-(trifluoromethyl)-pyrimidin-2-yl]amino}phenyl)sulfoximide] showed a pIC50 [1] of 6.94, a pIC50 (HeLa-MaTu-ADR) of 7.46 and a pIC50 (DU145) of 7.35. The pIC50 (NCI-H460) was 7.32, the pIC50 (HeLa-MaTu; Homo sapiens, 96 h) was 7.89 and the pIC50 (Caco-2) was 7.10. The pIC50 (MCF7) was 7.32.

For `C[C@@H](Nc1nc(Nc2ccc(S(C)(=N)=O)cc2)ncc1C(F)(F)F)C(C)(C)O` (mixture of isomers) [Example 9-SI-1, (RS)—S-(4-{[4-{[(1R)-2-Hydroxy-1,2-dimethylpropyl]amino}-5-(trifluoromethyl)pyrimidin-2-yl]amino}phenyl)-S-methylsulfoximide], the pIC50 (HeLa-MaTu-ADR) was 7.72, the pIC50 (DU145) was 7.47 and the pIC50 (NCI-H460) was 7.47. The pIC50 (Caco-2) was 7.21 and the pIC50 (MCF7) was 7.05.

For `CCS(=N)(=O)c1ccc(Nc2ncc(C(F)(F)F)c(N[C@H](C)C(C)(C)O)n2)cc1` (mixture of isomers) [Example 7-SI-1, (RS)—S-Ethyl-S-(4-{[4-{[(R)-2-hydroxy-1,2-dimethylpropyl]amino}-5-(trifluoromethyl)pyrimidin-2-yl]amino}phenyl)sulfoximide], the pIC50 (HeLa-MaTu-ADR) was 6.95, the pIC50 (DU145) was 6.82 and the pIC50 (NCI-H460) was 6.92. It also gave a pIC50 (HeLa-MaTu) of 7.57, a pIC50 (Caco-2) of 6.71 and a pIC50 (MCF7) of 6.97.

Compound `CCS(=N)(=O)c1ccc(Nc2ncc(C(F)(F)F)c(N[C@H](C)[C@@H](C)O)n2)cc1` (mixture of isomers) [Example 6-SI-1, (RS)—S-Ethyl-S-(4-{[4-{[(1R,2R)-2-hydroxy-1-methylpropyl]amino}-5-(trifluoromethyl)-pyrimidin-2-yl]amino}phenyl)sulfoximide] has a pIC50 [1] of 7.14, a pIC50 (HeLa-MaTu-ADR) of 7.46 and a pIC50 (DU145) of 7.00. It also gave a pIC50 (NCI-H460) of 7.30, a pIC50 (CDK2/CycE) of 8.30 and a pIC50 (CDK1/CycB) of 8.00. It also gave a pIC50 (Caco-2) of 6.92 and a pIC50 (MCF7) of 7.23.

Work on `CCS(=N)(=O)c1ccc(Nc2ncc(C(F)(F)F)c(N[C@H](C)C(C)(C)O)n2)cc1` (mixture of isomers) [Example 7-SI-2, (RS)—S-Ethyl-S-(4-{[4-{[(R)-2-hydroxy-1,2-dimethylpropyl]amino}-5-(trifluoromethyl)pyrimidin-2-yl]amino}phenyl)sulfoximide] yielded a pIC50 (HeLa-MaTu-ADR) of 7.44, a pIC50 (DU145) of 7.38 and a pIC50 (NCI-H460) of 7.29. The pIC50 (HeLa-MaTu) was 8.00, the pIC50 (Caco-2) was 7.17 and the pIC50 (MCF7) was 7.41.
